Values of other authors, collected in US11944640B2, “Zinc-[gamma]-PGA compositions and methods for treating cancer” (XYLONIX PTE. LTD., priority 2016, dated 2024).

Columns and labels:
[1] = test system: folate receptor (FR), FR-α and FR-β; conditions: FR-α vs FR-β
[2] = test system: androgen-dependent LNCaP and androgen-independent PC3, DU145 prostate cancer cell lines; conditions: micromolar concentrations (1-10 μM)
[3] = test system: leukocyte-originating cells, including murine thymocytes, murine splenic lymphocytes, human Ramos B, and human Jurkat T cells; conditions: nanomolar concentrations
[4] = test system: rats; conditions: 9˜14 days of dietary administration (240 ppm)

Molecule | affinity for folate receptor isoforms (selectivity) [1] | mode of cell death [2] | mode of cell death [3] | toxicity [4]
CN(CC1CNc2nc(N)[nH]c(=O)c2N1C)c1ccc(C(=O)N[C@@H](CCC(=O)O)C(=O)O)cc1 (stereo partly shown) [DMTHF, N^5,N^10-dimethyl tetrahydrofolate] | higher affinity for FR-α over FR-β | – | – | –
zinc pyrithione | – | elicited ATP-depletion and, eventually, ERK and PKC-dependent necrosis | induced zinc-specific apoptosis | acute neurological toxicity
